The conditions of series [1]: pH 7.4.
Description: Test compounds were prepared as 0.5 mM solutions in 50:50 acetonitrile:water and analyzed by reversed-phase HPLC-UV (wavelength 254 nm) using a Phenomenex Luna C18 100 Å 150 × 4.6 mm 5 μm column with a gradient of aqueous phase (50 mM ammonium acetate, pH 7.4) and mobile phase (acetonitrile) as described.[41],[42]
For series [2] the following is noted: mouse.
Description: Murine pharmacokinetic studies were performed exactly as reported.[40]
The nature of series [3]: physchem. The conditions noted are these: aqueous medium at pH 7.4, pH 7.4.
Description: (§1) In vitro ADME experiments were performed exactly as reported.[38]−[40]
Series [4] can be described thus: in vitro. The conditions noted are these: PAMPA, pH 7.4.
Description: as §1

Structures are written as SMILES. Values after ≈ are worked out from the molar mass of the structure shown. Like-named read-outs stand apart in the source and are kept apart here.

As a reminder, the Vdss is the apparent volume that relates the amount in the body to the concentration in plasma or blood. Read a low Vdss as confinement near the circulation. As a reminder, the Cmax is the highest concentration seen after dosing. By Tmax is commonly meant the time from dosing to the highest level. Regarding `COc1ccc(-c2noc(C(=O)NCCc3ccc(C(=O)N4CC(OC)C4)cc3)n2)cc1OC` [compound 15, 3-(3,4-Dimethoxyphenyl)-N-(4-(3-methoxyazetidine-1-carbonyl)phenethyl)-1,2,4-oxadiazole-5-carboxamide], in series [1], the CHI-logDpH7.4 was 2.1. In series [2] (IV 3 mg/kg), the “AUC0–480” value was determined as 56 µg·min/mL, the T1/2 was determined as 18 min and the volume of distribution (Vdss) is reported as 1.1 L/kg. Also, in series [2] (PO 200 mg/kg), the “AUC0–480” value was 48 µg·min/mL, the Cmax is given as 151 ng/mL, the F is recorded as 1.5% and the Tmax is 120 min.
As a reminder, the solubility is the dissolved amount per volume that the medium holds. The Papp is a coefficient for how fast a substance crosses the barrier. A lower Papp goes with poor permeation. The compound `COc1ccc(-c2noc(C(=O)NCCc3ccc(C(=O)N4CC5(COC5)C4)cc3)n2)cc1OC` [compound 18, N-(4-(2-Oxa-6-azaspiro[3.3]heptane-6-carbonyl)phenethyl)-3-(3,4-dimethoxyphenyl)-1,2,4-oxadiazole-5-carboxamide] returned a solubility in series [3] of 12 µM (≈ 5.74 µg/mL). For the same compound, the CHI-logDpH7.4 in series [1] was found to be 1.8. Further, the Papp in series [4] came out at 2.6 ×10⁻⁶ cm/s.
Turning to `COc1ccc(-c2noc(C(=O)NCCc3ccc(C(N)=O)cc3)n2)cc1OC` [compound 11, N-[2-(4-Carbamoylphenyl)ethyl]-3-(3,4-dimethoxyphenyl)-1,2,4-oxadiazole-5-carboxamide], the CHI-logDpH7.4 in series [1] is recorded as 1.7. The compound also had a Papp in series [4] of 2.9 ×10⁻⁶ cm/s.
For `COc1ccc(-c2noc(C(=O)NCCc3ccc(C(=O)N4CCC4)cc3)n2)cc1OC` [compound 14, N-[2-[4-(Azetidine-1-carbonyl)phenyl]ethyl]-3-(3,4-dimethoxyphenyl)-1,2,4-oxadiazole-5-carboxamide], in series [1], the CHI-logDpH7.4 is 2.1. The compound further registered an apparent permeability coefficient (Papp) in series [4] of 7.1 ×10⁻⁶ cm/s.
The compound `COc1ccc(-c2noc(C(=O)NC(C#N)Cc3ccc(C(=O)N4CC5(COC5)C4)cc3)n2)cc1OC` (stereo not drawn) [compound 44, N-(2-(4-(2-Oxa-6-azaspiro[3.3]heptane-6-carbonyl)phenyl)-1-cyanoethyl)-3-(3,4-dimethoxyphenyl)-1,2,4-oxadiazole-5-carboxamide] returned a CHI-logDpH7.4 in series [1] of 2.1. In series [4], this compound displayed an apparent permeability (Papp) of 0.6 ×10⁻⁶ cm/s. In series [2] (PO 10 mg/kg), the “AUC0–480” value amounted to 5 µg·min/mL, the maximum concentration (Cmax) is given as 56 ng/mL and the Tmax is 300 min.
Consider `COc1ccc(-c2noc(C(=O)NCCc3ccc(C(=O)N4CC(OC)C4)cc3)n2)cc1OCC1(O)CC1` [compound 80, 3-(3-((1-Hydroxycyclopropyl)methoxy)-4-methoxyphenyl)-N-(4-(3-methoxyazetidine-1-carbonyl)phenethyl)-1,2,4-oxadiazole-5-carboxamide], for which, in series [2] (IV 3 mg/kg), the “AUC0–480” value turned out to be 81 µg·min/mL, the T1/2 was 24 min and the Vdss is listed as 0.9 L/kg. For the same compound, in series [2] (PO 10 mg/kg), the “AUC0–480” value came out at 4 µg·min/mL, the maximum concentration (Cmax) came to 61 ng/mL, the F was found to be 1.5% and the Tmax turned out to be 30 min.
Compound `COc1ccc(-c2noc(C(=O)NC(C#N)Cc3ccc(C(=O)N4CC(OC)C4)cc3)n2)cc1OCC1(O)CC1` (stereo not drawn) [compound 45, N-[1-Cyano-2-[4-(3-methoxyazetidine-1-carbonyl)phenyl]ethyl]-3-[3-[(1-hydroxycyclopropyl)methoxy]-4-methoxyphenyl]-1,2,4-oxadiazole-5-carboxamide] registered a solubility in series [3] of 152 µM (≈ 83.2 µg/mL).
As to `COc1ccc(-c2noc(C(=O)NCCc3ccccc3)n2)cc1OC` [compound 106], the concentration in solution in series [3] (solubility) was 51 µM (≈ 18 µg/mL).
For the compound `COc1ccc(-c2noc(C(=O)NC[C@H](C)c3ccccc3)n2)cc1OC` [compound 8, 3-(3,4-Dimethoxyphenyl)-N-[(2R)-2-phenylpropyl]-1,2,4-oxadiazole-5-carboxamide], in series [1], the CHI-logDpH7.4 stood at 3.3. Moreover, the Papp in series [4] turned out to be 5.5 ×10⁻⁶ cm/s.
In series [1], `COc1ccc(-c2noc(C(=O)NCCc3ccc(C(=O)N4CCC4)nc3)n2)cc1OC` [compound 25, N-(2-(6-(Azetidine-1-carbonyl)pyridin-3-yl)ethyl)-3-(3,4-dimethoxyphenyl)-1,2,4-oxadiazole-5-carboxamide] gave a CHI-logDpH7.4 of 1.9. Moreover, in series [4], the Papp turned out to be 5.4 ×10⁻⁶ cm/s.

These data come from paper PMC10683028 (Journal of Medicinal Chemistry, 2023).
